# From patent US12552797B2, “Process for making (3-[cyclopropylethoxy(difluoro)methyl]-6-6[5-fluoro-6-(2,2,2-trifluoroethoxy-3-pyridyl]- [1,2,4]triazolo[4,3-a]pyrazine” (Praxis Precision Medicines, Inc., priority 2019, dated 2026)
# Assays:
# Type in all cases: physicochemical
# [1] = Stability of suspension formulations in methylcellulose/Poloxamer 188 vehicles (appearance, concentration, purity, PSD); parameters: key: *: homogeneous suspension initially, sedimentation occurred over time and returned to homogeneous after gentle agitation for ~1 min; #: viscous homogeneous suspension initially, sedimentation occurred over time and returned to homogeneous after gentle agitation for ~2 mins; settings: 96 h at RT
# Experimental: As shown in Tables 9-11, various suspension formulations were tested for stability under different conditions.
# To prepare a suspension weigh required amount of milled Compound 1 into a glass container and add corresponding volume of the vehicle. Thoroughly disperse the compound into a homogenous suspension using an overhead mixer at the final concentration target. Concentrations were prepared at 0.1 mg/mL and at 10 mg/mL. The suspension products were physically evaluated on visual appearance, concentration, purity and PSD.
# The vehicles are prepared by dissolving 0.5% by weight of either 400 cP methylcellulose or 4000 cP methylcellulose and 0.2% Poloxamer 188. For the preserved suspensions, additionally 1.0% by volume of paraben preservative solution was dissolved into vehicle using an overhead mixer. The paraben preservative solution was prepared by dissolving 0.10 g methyl paraben, 0.025 g propylparaben in 9.875 g propylene glycol dissolved by mixing with a stir bar at room temperature for 1 hour.
# [2] = Stability of suspension formulations in 0.5% MC 400 cP/0.2% Tween 80 (HPLC, PSD)
# Experimental: For stability and purity testing of Compound 1 a high-performance liquid chromatography (HPLC) method was developed. The HPLC method used for chemical stability and purity testing was as follows:
# To prepare suspension formulations of Compound 1, about 0.5 mg, 5 mg and 10 mg of Compound 1 were weighted into separate vials and 1 mL 0.5% MC 400 cP/0.2% Tween 80 was added to each vial. The materials were mixed together by Vortex and stirred at room temperature overnight (24 hrs). The stability of the suspension formulations was measured by quantifying the purity of Compound 1 using high pressure liquid chromatography (HPLC). […]
# To prepare a suspension formulation comprising jet-milled Compound 1, 15 mg of jet-milled Compound 1 was weighed into a glass vial and then 10 mL of vehicle (0.5% MC 400 cP/0.2% Tween 80) was added to disperse it to reach Compound 1 concentration of 1.5 mg/mL. The suspension was thoroughly dispersed by homogenization for ˜30 seconds. The stability of the suspension was evaluated by HPLC and particle size distribution (PSD), and the results are summarized in Table 7. Based on HPLC and PSD, the suspension formulation comprising jet-milled Compound 1 was stable at ambient condition for 28 days.
# [3] = XRPD, NMR and LC-MS of Compound 1 before and after jet milling
# Experimental: X-ray powder diffraction (XRPD) data were collected using a Bruker D8 Advance powder diffractometer. The samples were irradiated with copper K-alpha X-rays (λ=1.54179 Å) with the generator operating at 40 kV/40 mA. The samples were scanned in continuous mode from 3° to 40° (2 θ) with a sample rotation speed of 15 rpm and a scanning rate of 10°/min.
# Proton NMR (^1H-NMR), Florine NMR (^19F-NMR) and LC-MS analyses were also carried out on Compound 1 before jet milling and after jet milling.
# [4] = Kinetic solubility of amorphous solid dispersions (ASD) in FaSSIF
# Experimental: Amorphous solid dispersion including Compound 1 was prepared with a mixture of Compound 1 and polymer. Nine ASD formulations were prepared using for screening 9 different polymers as the solid dispersant (PVPK30, PVPVA64, Soluplus, HPMC E5, HPMC ASMG, HPMC ASMF, HPMC ASHG, Eudragit EPO, Eudragit L100). About 10 mg of Compound 1 and 40 mg of corresponding polymer were weighed into 40-mL glass vials, and dissolved in 1 mL of MeOH/DCM (1:1, v/v) to prepare stock solution. […] The product after evaporation was dried under vacuum at 30° C. overnight and further characterized by appearance, PLM, XRPD and mDSC.
# The nine ASD formulations were tested for kinetic solubility in FaSSIF at the concentration of 2 mg/mL. The experiment was run at 37° C. with the rate of 450 rpm. 0.5 mL of the mixture was taken out at each time point and centrifuged before running UPLC (a shortened runtime version of the described HPLC method was used to determine the Compound 1 levels).
# [5] = jet milled, 0.5% MC 400 cP/0.2% Tween 80, target 1.5 mg/mL, 1 day
# [6] = jet milled, 0.5% MC 400 cP/0.2% Tween 80, target 1.5 mg/mL, 6 days
# [7] = jet-milled, 0.5% MC 400 cP/0.2% Tween 80, target 1.5 mg/mL, RT, Initial
# [8] = jet-milled, 0.5% MC 400 cP/0.2% Tween 80, target 1.5 mg/mL, RT, day 1
# [9] = jet-milled, 0.5% MC 400 cP/0.2% Tween 80, target 1.5 mg/mL, RT, day 2
# [10] = jet-milled, 0.5% MC 400 cP/0.2% Tween 80, target 1.5 mg/mL, RT, day 3
# [11] = jet-milled, 0.5% MC 400 cP/0.2% Tween 80, target 1.5 mg/mL, RT, day 6
# [12] = jet-milled, 0.5% MC 400 cP/0.2% Tween 80, target 1.5 mg/mL, RT, day 7
# [13] = jet-milled, 0.5% MC 400 cP/0.2% Tween 80, target 1.5 mg/mL, RT, day 14
# [14] = jet-milled, 0.5% MC 400 cP/0.2% Tween 80, target 1.5 mg/mL, RT, day 21
# [15] = jet-milled, 0.5% MC 400 cP/0.2% Tween 80, target 1.5 mg/mL, RT, day 28
# [16] = un-milled, 0.5% MC 400 cP/0.2% Tween 80, target 0.5 mg/mL, 1 hr
# [17] = un-milled, 0.5% MC 400 cP/0.2% Tween 80, target 0.5 mg/mL, 4 hrs
# [18] = un-milled, 0.5% MC 400 cP/0.2% Tween 80, target 0.5 mg/mL, 7 days
# [19] = un-milled, 0.5% MC 400 cP/0.2% Tween 80, target 5 mg/mL, 4 hrs
# [20] = un-milled, 0.5% MC 400 cP/0.2% Tween 80, target 5 mg/mL, 7 days
# [21] = un-milled, 0.5% MC 400 cP/0.2% Tween 80, target 10 mg/mL, 1 hr
# [22] = un-milled, 0.5% MC 400 cP/0.2% Tween 80, target 10 mg/mL, 4 hrs
# [23] = un-milled, 0.5% MC 400 cP/0.2% Tween 80, target 10 mg/mL, 7 days
smiles,measurement,setting,value
"CCOC(F)(F)c1nnc2cnc(-c3cnc(OCC(F)(F)F)c(F)c3)cn12 [Compound 1, 3-(ethoxydifluoromethyl)-6-(5-fluoro-6-(2,2,2-trifluoroethoxy)pyridin-3-yl)-[1,2,4]triazolo[4,3-a]pyrazine]",Visual Appearance,"[1]; 0.5% 400 cP MC, 0.2% Poloxamer 188, 0.1 mg/mL",*
same,Visual Appearance,"[1]; 0.5% 400 cP MC, 0.2% Poloxamer 188, 10 mg/mL",*
same,Visual Appearance,"[1]; 0.5% 400 cP MC, 0.2% Poloxamer 188 and 1.0% of paraben preservative solution, 0.1 mg/mL",*
same,Visual Appearance,"[1]; 0.5% 400 cP MC, 0.2% Poloxamer 188 and 1.0% of paraben preservative solution, 10 mg/mL",*
same,Visual Appearance,"[1]; 0.5% 4000 cP MC, 0.2% Poloxamer 188, 0.1 mg/mL",#
same,Visual Appearance,"[1]; 0.5% 4000 cP MC, 0.2% Poloxamer 188, 10 mg/mL",#
same,Visual Appearance,"[1]; 0.5% 4000 cP MC, 0.2% Poloxamer 188 and 1.0% of paraben preservative solution, 0.1 mg/mL",#
same,Visual Appearance,"[1]; 0.5% 4000 cP MC, 0.2% Poloxamer 188 and 1.0% of paraben preservative solution, 10 mg/mL",#
same,appearance of suspensions,"[2]; 0.5, 5 and 10 mg/mL in 0.5% MC 400 cP/0.2% Tween 80, room temperature",homogenous suspensions
same,Concentration,[2]; [5],1440 µg/mL
same,Purity,[2]; [5],99.4%
same,Concentration,[2]; [6],1430 µg/mL
same,Purity,[2]; [6],99.5%
same,Appearance,[2]; [7],Homogeneous
same,Conc.,[2]; [7],1610 µg/mL
same,Purity,[2]; [7],99.43%
same,Appearance,[2]; [8],Homogeneous
same,Conc.,[2]; [8],1440 µg/mL
same,Purity,[2]; [8],99.44%
same,Appearance,[2]; [9],Homogeneous
same,Conc.,[2]; [9],1380 µg/mL
same,Purity,[2]; [9],99.52%
same,Appearance,[2]; [10],Homogeneous
same,Conc.,[2]; [10],1580 µg/mL
same,Purity,[2]; [10],99.49%
same,Appearance,[2]; [11],Homogeneous
same,Conc.,[2]; [11],1430 µg/mL
same,Purity,[2]; [11],99.51%
same,Appearance,[2]; [12],Homogeneous
same,Conc.,[2]; [12],1610 µg/mL
same,Purity,[2]; [12],99.55%
same,Appearance,[2]; [13],Homogeneous
same,Conc.,[2]; [13],1610 µg/mL
same,Purity,[2]; [13],99.36%
same,Appearance,[2]; [14],Homogeneous
same,Conc.,[2]; [14],1560 µg/mL
same,PSD (D90),[2]; [14],6.97 um
same,Purity,[2]; [14],99.58%
same,Appearance,[2]; [15],Homogeneous
same,Conc.,[2]; [15],1640 µg/mL
same,PSD (D90),[2]; [15],6.80 um
same,Purity,[2]; [15],98.96%
same,stable at ambient condition (HPLC and PSD),"[2]; suspension of jet-milled Compound 1, 1.5 mg/mL, 0.5% MC 400 cP/0.2% Tween 80",28 days
same,Concentration,[2]; [16],580 µg/mL
same,Purity,[2]; [16],97.46%
same,Concentration,[2]; [17],450 µg/mL
same,Purity,[2]; [17],96.65%
same,Concentration,[2]; [18],490 µg/mL
same,Purity,[2]; [18],97.85%
same,Purity,"[2]; un-milled, 0.5% MC 400 cP/0.2% Tween 80, target 5 mg/mL, 1 hr",97.60%
same,Concentration,[2]; [19],4720 µg/mL
same,Purity,[2]; [19],97.84%
same,Concentration,[2]; [20],5060 µg/mL
same,Purity,[2]; [20],96.95%
same,Concentration,[2]; [21],9690 µg/mL
same,Purity,[2]; [21],96.86%
same,Concentration,[2]; [22],9790 µg/mL
same,Purity,[2]; [22],97.12%
same,Concentration,[2]; [23],9720 µg/mL
same,Purity,[2]; [23],96.71%
same,physical form change (XRPD),[3]; after jet-milling,no physical form change
same,"chemical or structural change (NMR, LC-MS)",[3]; due to jet milling,no observed chemical or structural change
same,solubility kinetic at 15 min,"[4]; FaSSIF, thermodynamic from solid, 2 mg/mL, 37° C., 450 rpm, 15 min",5.7 µg/mL
same,solubility kinetic at 30 min,"[4]; FaSSIF, thermodynamic from solid, 2 mg/mL, 37° C., 450 rpm, 30 min",8.1 µg/mL
same,solubility kinetic at 60 min,"[4]; FaSSIF, thermodynamic from solid, 2 mg/mL, 37° C., 450 rpm, 60 min",7.1 µg/mL
same,solubility kinetic at 120 min,"[4]; FaSSIF, thermodynamic from solid, 2 mg/mL, 37° C., 450 rpm, 120 min",11.6 µg/mL
same,Final pH,[4]; kinetic solubility test in FaSSIF,6.54
